Inhibition and melting point data for 20 molecules are collected here from US8394820B2, “N-azabicyclic carboxamide derivatives, preparation thereof and therapeutic use thereof” (Sanofi, priority 2008, dated 2013).

SMILES strings stand for the structures.

T1 sequence (O35433 whole entry): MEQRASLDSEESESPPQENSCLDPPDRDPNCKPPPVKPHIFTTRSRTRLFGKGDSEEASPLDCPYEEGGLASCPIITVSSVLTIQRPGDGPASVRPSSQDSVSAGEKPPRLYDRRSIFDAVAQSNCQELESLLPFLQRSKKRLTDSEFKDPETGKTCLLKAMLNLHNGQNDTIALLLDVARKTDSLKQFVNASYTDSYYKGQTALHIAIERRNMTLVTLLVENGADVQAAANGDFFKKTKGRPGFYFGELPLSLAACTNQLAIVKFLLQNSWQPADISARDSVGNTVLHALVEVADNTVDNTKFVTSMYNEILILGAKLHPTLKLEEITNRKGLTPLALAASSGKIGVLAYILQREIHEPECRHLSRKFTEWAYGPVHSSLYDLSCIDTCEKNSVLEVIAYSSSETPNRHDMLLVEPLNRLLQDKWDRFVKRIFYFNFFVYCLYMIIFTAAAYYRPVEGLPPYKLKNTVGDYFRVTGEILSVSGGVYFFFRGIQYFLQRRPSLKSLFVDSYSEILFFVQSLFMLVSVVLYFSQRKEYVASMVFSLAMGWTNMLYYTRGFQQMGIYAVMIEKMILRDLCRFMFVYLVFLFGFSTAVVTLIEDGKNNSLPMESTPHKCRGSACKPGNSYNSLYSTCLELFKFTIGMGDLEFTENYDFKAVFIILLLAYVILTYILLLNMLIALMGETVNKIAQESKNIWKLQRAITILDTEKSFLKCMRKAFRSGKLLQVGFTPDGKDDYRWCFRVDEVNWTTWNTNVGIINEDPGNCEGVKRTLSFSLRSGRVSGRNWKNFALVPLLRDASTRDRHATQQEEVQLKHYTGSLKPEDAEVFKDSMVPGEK

The first series has as its target T1, TRPV1 receptor (Rattus norvegicus, UniProt O35433).
T1 construct: DRG neurones naturally express the TRPV1 receptor; endogenous in cells; host or cells: primary culture of newborn (1-day-old) rat dorsal root ganglion neurones
Nature of the series: Test of inhibition of the current induced with capsaicin on rat DRGs (whole-cell patch-clamp). To be noted: compound at 1 nM; inhibition of control capsaicin response; primary culture of newborn rat DRG neurones. The class given is cell-based. The protocol:
Test of Inhibition of the Current Induced with Capsaicin on Rat DRGs • Primary culture of rat dorsal root ganglion (DRG) cells:
DRG neurones naturally express the TRPV1 receptor.
The primary cultures of newborn rat DRGs are prepared using 1-day-old rats. Briefly, after dissection, the ganglions are trypsinized and the cells dissociated by mechanical trituration. The cells are resuspended in an Eagle basal culture medium containing 10% foetal calf serum, 25 mM KCl, 2 mM glutamine, 100 μg/ml gentamicin and 50 ng/ml of NGF, and then deposited on glass slides coated with laminin (0.25×10^6 cells per slide), which are then placed in Corning 12-well dishes. The cells are incubated at 37° C. in a humidified atmosphere containing 5% CO2 and 95% air. […]
The measuring chambers (volume 800 μl) containing the cell preparation are placed on the platform of an inverted microscope (Olympus IMT2) equipped with Hoffman optics (Modulation Contrast, New York) and observed at a magnification of 400×. […] The overall currents (membrane potential set at −60 mV) are recorded with an Axopatch 1D amplifier (Axon Instruments, Foster City, Calif.), connected to a PC running the Pclamp8 software (Axon Instrument). The current plots are recorded on paper and simultaneously digitized (sampling frequency 15 to 25 Hz) and acquired on the hard drive of the PC. […]
On the technique in general: The patch-clamp technique gives a direct electrical read-out from membranes.
As to `Cc1nc2cc(NC(=O)c3cc4cc(F)ccc4n3Cc3cccc(F)c3)ccn2c1C` [Compound 1, N-(2,3-Dimethylimidazo[1,2-a]pyrid-7-yl)-5-fluoro-1-[(3-fluorophenyl)methyl]-1H-indole-2-carboxamide], the inhibition at 0.001 µM came out at 81.5%.

Still in this series, the particulars now being: compound at 100 nM; inhibition of control capsaicin response; primary culture of newborn rat DRG neurones.
The molecule `Cc1cc2ncc(NC(=O)c3cc4cc(F)ccc4n3Cc3cccc(F)c3)cn2n1` [Compound 20, N-(2-Methylpyrazolo[1,5-a]pyrimidin-6-yl)-5-fluoro-1-[(3-fluorophenyl)methyl]-1H-indole-2-carboxamide] yielded an inhibition at 0.1 µM of 80%.

Tested on in another series: not given
Test: not given
Settings: not given
In turn, `Cc1nc2cc(NC(=O)c3cc4cc(F)ccc4n3Cc3cccc(F)c3)ccn2c1-c1ccccc1` came in with a melting point of 305 to 307 °C. In turn, `O=C(Nc1ccn2cc(-c3cccs3)nc2c1)c1cc2cc(F)ccc2n1Cc1cccc(F)c1` registered a melting point of 259 to 260 °C. With `CC(C)(C)c1cn2ccc(NC(=O)c3cc4cc(F)ccc4n3Cc3cccc(F)c3)cc2n1`, the melting point was 327 to 328 °C.

`Cc1nc2cc(NC(=O)c3cc4cc(C(F)(F)F)ccc4n3Cc3cccc(F)c3)ccn2c1C` returned a melting point of 280 to 281 °C.

On to `CCc1cn2ccc(NC(=O)c3cc4cc(C(F)(F)F)cnc4n3Cc3cccc(F)c3)cc2n1`, for which the melting point fell in the range of 264 to 265 °C. The molecule `Cc1nc2cc(NC(=O)c3cc4cc(C(F)(F)F)cnc4n3Cc3cccc(F)c3)ccn2c1C` returned a melting point of 287 to 288 °C.

Turning to `O=C(Nc1ccn2cc(CO)nc2c1)c1cc2cc(C(F)(F)F)ccc2n1Cc1cccc(F)c1`, the melting point lay within 254 to 255 °C. Consider `O=C(Nc1ccn2cc(CO)nc2c1)c1cc2cc(C(F)(F)F)cnc2n1Cc1cccc(F)c1`, for which the melting point lay in the range of 238 to 240 °C.

Consider `Cc1cn2ccc(NC(=O)c3cc4cc(F)ccc4n3Cc3cccc(F)c3)cc2n1`, for which the melting point is 267 to 268 °C. `CCOC(=O)c1cn2nc(NC(=O)c3cc4cc(F)ccc4n3Cc3cccc(F)c3)ccc2n1` displayed a melting point of 267 to 268 °C. In turn, `CCOC(=O)c1cn2cc(NC(=O)c3cc4cc(F)ccc4n3Cc3cccc(F)c3)ccc2n1` registered a melting point of 242 to 245 °C.

`Cc1cn2cc(NC(=O)c3cc4cc(F)ccc4n3Cc3cccc(F)c3)ccc2n1` had a melting point of 200 to 203 °C. `O=C(Nc1ccc2nc(CO)cn2c1)c1cc2cc(F)ccc2n1Cc1cccc(F)c1` registered a melting point of 247 to 249 °C. On to `CCc1cn2cc(NC(=O)c3cc4cc(F)ccc4n3Cc3cccc(F)c3)ccc2n1`, for which the melting point lay in the range of 278 to 279 °C.

`O=C(Nc1ccc2nc(-c3cccs3)cn2c1)c1cc2cc(F)ccc2n1Cc1cccc(F)c1` came in with a melting point of 316 to 318 °C.

`CC(C)(C)c1cn2cc(NC(=O)c3cc4cc(F)ccc4n3Cc3cccc(F)c3)ccc2n1` came in with a melting point of 190 to 192 °C. The molecule `COCc1cn2ccc(NC(=O)c3cc4cc(F)ccc4n3Cc3cccc(F)c3)cc2n1` showed a melting point of 215 to 216 °C.

As for `O=C(Nc1ccn2cc(CO)nc2c1)c1cc2cc(F)ccc2n1Cc1cccc(F)c1`, the melting point was 244 to 245 °C. Still for that read-out and setting: the same measure for `Cc1cc2ncc(NC(=O)c3cc4cc(F)ccc4n3Cc3cccc(F)c3)cn2n1` [Compound 20, N-(2-Methylpyrazolo[1,5-a]pyrimidin-6-yl)-5-fluoro-1-[(3-fluorophenyl)methyl]-1H-indole-2-carboxamide]: 267 to 268 °C.

Broadly, the inhibition is the share of the control response that was lost under treatment. A word on the melting point: it is the temperature of the solid-liquid transition.
